One assay concerns the target T1, CRF1R (Homo sapiens, UniProt P34998).
T1 sequence (P34998 24-415): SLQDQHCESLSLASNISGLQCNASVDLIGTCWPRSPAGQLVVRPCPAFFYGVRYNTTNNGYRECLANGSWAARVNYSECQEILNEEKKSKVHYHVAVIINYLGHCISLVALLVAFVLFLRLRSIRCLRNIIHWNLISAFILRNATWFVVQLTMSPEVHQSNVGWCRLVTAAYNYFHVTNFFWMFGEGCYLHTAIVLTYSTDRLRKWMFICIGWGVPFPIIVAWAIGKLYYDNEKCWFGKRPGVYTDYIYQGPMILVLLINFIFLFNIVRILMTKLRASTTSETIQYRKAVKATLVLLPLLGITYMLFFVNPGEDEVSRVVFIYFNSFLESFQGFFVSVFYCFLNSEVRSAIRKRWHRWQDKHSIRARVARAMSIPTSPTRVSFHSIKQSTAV
Kind of assay: CRF1R agonist activation (EC50 / Emax), called comparative CRF binding. The format is cell-based. Conditions: for Emax: read-out: CRF1R Emax; for EC50: read-out: CRF1R EC50. An excerpt:
(§1) The pharmacological activity and selectivity of the peptides of present invention can be determined using published test procedures. See, e.g, U.S. patent application Ser. No. 09/799,978 (now issued U.S. Pat. No. 6,670,140). Because CRF2R and CRF1R are homologous proteins, it is expected that a certain proportion of agonists for CRF2R will also function as agonists of CRF1R. As discussed above, activation of CRF1R induces activation of the HPA axis since increased corticosteroid production leads to skeletal muscle atrophy. In most cases in which an increase in muscle mass or function is desired, it is not desirable to activate the HPA axis.
(§2) Cell-based assays include the steps of contacting cells which express CRF1R or CRF2R with a peptide of the present invention or control and measuring activation of the CRFR by measuring the expression or activity of components of the CRFR signal transduction pathways.
(§3) For example, after contact with a peptide of the present invention, lysates of the cells can be prepared and assayed for induction of cAMP. cAMP is induced in response to Gαs activation. Because Gαs is activated by receptors other than CRFR and because a test peptide may be exerting its effect through CRFRs or by another mechanism, two control comparisons are relevant for determining whether the peptide increases levels of cAMP via activation of a CRFR. One control compares the cAMP level of cells contacted with the peptide and the cAMP level of cells contacted with a control compound (i.e., the vehicle in which the peptide is dissolved).
(§4) In one example, cAMP induction is measured with the use of DNA constructs containing the cAMP responsive element linked to any of a variety of reporter genes can be introduced into cells expressing CRFRs. Such reporter genes include, but are not limited to, chloramphenicol acetyltransferase (CAT), luciferase, glucuronide synthetase, growth hormone, fluorescent proteins (e.g., Green Fluorescent Protein), or alkaline phosphatase. Following exposure of the cells to the peptide, the level of reporter gene expression can be quantitated to determine the peptide's ability to increase cAMP levels and thus determine the peptide's ability to activate the CRFR.
(§5) In addition to using cells expressing full length CRFRs, cells can be engineered which express CRFRs containing the ligand binding domain of the receptor coupled to, or physically modified to contain, reporter elements or to interact with signaling proteins. For example, a wild type CRFR or CRFR fragment can be fused to a G-protein resulting in activation of the fused G-protein upon agonist binding to the CRFR portion of the fusion protein. […] In addition, alternative pathways for induction of the CRE reporter could be eliminated to reduce basal levels.

A further assay concerns the target T2, CRF2R (Homo sapiens, UniProt Q13324).
T2 sequence (Q13324 1-411): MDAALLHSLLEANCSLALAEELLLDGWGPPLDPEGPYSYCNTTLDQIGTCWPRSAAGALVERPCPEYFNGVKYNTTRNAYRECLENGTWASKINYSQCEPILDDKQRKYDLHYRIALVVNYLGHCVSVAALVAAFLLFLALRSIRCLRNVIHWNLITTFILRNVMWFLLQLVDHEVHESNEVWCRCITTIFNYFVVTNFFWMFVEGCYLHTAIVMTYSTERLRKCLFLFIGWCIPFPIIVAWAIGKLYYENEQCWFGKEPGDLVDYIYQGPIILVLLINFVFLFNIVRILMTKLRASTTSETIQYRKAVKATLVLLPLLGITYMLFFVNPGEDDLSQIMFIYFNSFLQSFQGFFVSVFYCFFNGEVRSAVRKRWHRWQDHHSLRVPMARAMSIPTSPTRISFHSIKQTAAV
Kind of assay: CRF2R agonist activation (EC50 / Emax), called comparative CRF binding. The format is cell-based. Particulars: for Emax: read-out: CRF2R Emax; for EC50: read-out: CRF2R EC50.
Source text: as §1, §2, §3, §4, §5

Broadly, the Emax is the size of the effect at its maximum, as opposed to the concentration needed. As usually defined, the EC50 is the concentration that produces a half-maximal response.

Molecules are shown by their SMILES. Peptide text beside a SMILES is read from it.

As to `CC[C@H](C)[C@H](N)C(=O)N[C@H](C(=O)N[C@@H](CC(C)C)C(=O)N[C@@H](CO)C(=O)N[C@@H](CC(C)C)C(=O)N[C@@H](CC(=O)O)C(=O)N[C@H](C(=O)N1CCC[C@H]1C(=O)N[C@H](C(=O)NCC(=O)N[C@@H](CC(C)C)C(=O)N[C@@H](CC(C)C)C(=O)N[C@@H](CCC(N)=O)C(=O)N[C@H](C(=O)N[C@@H](CC(C)C)C(=O)N[C@@H](CC(C)C)C(=O)N[C@@H](CCC(=O)O)C(=O)N[C@@H](CCC(N)=O)C(=O)N[C@H](C(=O)N[C@@H](CCCCN)C(=O)N[C@@H](C)C(=O)N[C@@H](CC(=O)O)C(=O)N[C@@H](C)C(=O)N[C@@H](C)C(=O)N[C@@H](CCCNC(=N)N)C(=O)N[C@@H](CCC(=O)O)C(=O)N[C@@H](CCC(N)=O)C(=O)N[C@@H](C)C(=O)N[C@H](C(=O)N[C@H](C(=O)N[C@@H](CC(N)=O)C(=O)N[C@@H](C)C(=O)N[C@@H](CCCNC(=N)N)C(=O)N[C@H](C(=O)N[C@@H](CC(C)C)C(=O)N[C@@H](C)C(=O)N[C@@H](CCCNC(=N)N)C(=O)N[C@H](C(N)=O)C(C)C)[C@@H](C)CC)[C@@H](C)O)[C@@H](C)O)[C@@H](C)O)[C@@H](C)CC)[C@@H](C)CC)C(C)C)C(C)C` [compound 108] (H-IVLSLDVPIGLLQILLEQTKADAAREQATTNARILARV-NH2; N-terminus assumed), the results for the Emax at CRF1R and at CRF2R were 3% and 97%, respectively.
The like results for `CC[C@H](C)[C@H](N)C(=O)N[C@H](C(=O)N[C@@H](CC(C)C)C(=O)N[C@@H](CO)C(=O)N[C@@H](CC(C)C)C(=O)N[C@@H](CC(=O)O)C(=O)N[C@H](C(=O)N1CCC[C@H]1C(=O)N[C@H](C(=O)NCC(=O)N[C@@H](CC(C)C)C(=O)N[C@@H](CC(C)C)C(=O)N[C@@H](CCC(N)=O)C(=O)N[C@H](C(=O)N[C@@H](CC(C)C)C(=O)N[C@@H](CC(C)C)C(=O)N[C@@H](CCC(=O)O)C(=O)N[C@@H](CCC(N)=O)C(=O)N[C@@H](C)C(=O)N[C@@H](CCCCN)C(=O)N[C@@H](C)C(=O)N[C@@H](CCCNC(=N)N)C(=O)N[C@@H](C)C(=O)N[C@@H](C)C(=O)N[C@@H](CCCNC(=N)N)C(=O)N[C@@H](CCC(=O)O)C(=O)N[C@@H](CCC(N)=O)C(=O)N[C@@H](C)C(=O)N[C@H](C(=O)N[C@H](C(=O)N[C@@H](CC(N)=O)C(=O)N[C@@H](C)C(=O)N[C@@H](CCCNC(=N)N)C(=O)N[C@H](C(=O)N[C@@H](CC(C)C)C(=O)N[C@@H](C)C(=O)N[C@@H](CCCNC(=N)N)C(=O)N[C@H](C(N)=O)C(C)C)[C@@H](C)CC)[C@@H](C)O)[C@@H](C)O)[C@@H](C)CC)[C@@H](C)CC)C(C)C)C(C)C` [compound 109] (H-IVLSLDVPIGLLQILLEQAKARAAREQATTNARILARV-NH2; N-terminus assumed) were, in that order, 6.7% and 91.7%.
Turning to `CC[C@H](C)[C@H](N)C(=O)N[C@H](C(=O)N[C@@H](CC(C)C)C(=O)N[C@@H](CO)C(=O)N[C@@H](CC(C)C)C(=O)N[C@@H](CC(=O)O)C(=O)N[C@H](C(=O)N1CCC[C@H]1C(=O)N[C@H](C(=O)NCC(=O)N[C@@H](CC(C)C)C(=O)N[C@@H](CC(C)C)C(=O)N[C@@H](CCC(N)=O)C(=O)N[C@H](C(=O)N[C@@H](CC(C)C)C(=O)N[C@@H](CC(C)C)C(=O)N[C@@H](CCC(=O)O)C(=O)N[C@@H](CCC(N)=O)C(=O)N[C@@H](C)C(=O)N[C@@H](CCCCN)C(=O)N[C@@H](CCC(N)=O)C(=O)N[C@@H](CCCNC(=N)N)C(=O)N[C@@H](C)C(=O)N[C@@H](C)C(=O)N[C@@H](CCCNC(=N)N)C(=O)N[C@@H](CCC(=O)O)C(=O)N[C@@H](CCC(N)=O)C(=O)N[C@@H](C)C(=O)N[C@H](C(=O)N[C@H](C(=O)N[C@@H](CC(N)=O)C(=O)N[C@@H](C)C(=O)N[C@@H](CCCNC(=N)N)C(=O)N[C@H](C(=O)N[C@@H](CC(C)C)C(=O)N[C@@H](C)C(=O)N[C@@H](CCCNC(=N)N)C(=O)N[C@H](C(N)=O)C(C)C)[C@@H](C)CC)[C@@H](C)O)[C@@H](C)O)[C@@H](C)CC)[C@@H](C)CC)C(C)C)C(C)C` [compound 110] (H-IVLSLDVPIGLLQILLEQAKQRAAREQATTNARILARV-NH2; N-terminus assumed), on CRF1R, the EC50 was over 100 nM and the maximal effect (Emax) worked out at 9%. Moreover, at CRF2R, the EC50 came out at 11 nM and the Emax turned out to be 100%.
As to `CC[C@H](C)[C@H](N)C(=O)N[C@H](C(=O)N[C@@H](CC(C)C)C(=O)N[C@@H](CO)C(=O)N[C@@H](CC(C)C)C(=O)N[C@@H](CC(=O)O)C(=O)N[C@H](C(=O)N1CCC[C@H]1C(=O)N[C@H](C(=O)NCC(=O)N[C@@H](CC(C)C)C(=O)N[C@@H](CC(C)C)C(=O)N[C@@H](CCC(N)=O)C(=O)N[C@H](C(=O)N[C@@H](CC(C)C)C(=O)N[C@@H](CC(C)C)C(=O)N[C@@H](CCC(=O)O)C(=O)N[C@@H](CCC(N)=O)C(=O)N[C@@H](CCC(=O)O)C(=O)N[C@@H](CCCNC(=N)N)C(=O)N[C@@H](CCC(N)=O)C(=O)N[C@@H](CCCNC(=N)N)C(=O)N[C@@H](C)C(=O)N[C@@H](C)C(=O)N[C@@H](CCCNC(=N)N)C(=O)N[C@@H](CCC(=O)O)C(=O)N[C@@H](CCC(N)=O)C(=O)N[C@@H](C)C(=O)N[C@H](C(=O)N[C@H](C(=O)N[C@@H](CC(N)=O)C(=O)N[C@@H](C)C(=O)N[C@@H](CCCNC(=N)N)C(=O)N[C@H](C(=O)N[C@@H](CC(C)C)C(=O)N[C@@H](C)C(=O)N[C@@H](CCCNC(=N)N)C(=O)N[C@H](C(N)=O)C(C)C)[C@@H](C)CC)[C@@H](C)O)[C@@H](C)O)[C@@H](C)CC)[C@@H](C)CC)C(C)C)C(C)C` [compound 111] (H-IVLSLDVPIGLLQILLEQERQRAAREQATTNARILARV-NH2; N-terminus assumed), the Emax at CRF1R is 9%; at CRF2R, 99%.
Turning to `CC[C@H](C)[C@H](N)C(=O)N[C@H](C(=O)N[C@@H](CC(C)C)C(=O)N[C@@H](CO)C(=O)N[C@@H](CC(C)C)C(=O)N[C@@H](CC(=O)O)C(=O)N[C@H](C(=O)N1CCC[C@H]1C(=O)N[C@H](C(=O)NCC(=O)N[C@@H](CC(C)C)C(=O)N[C@@H](CC(C)C)C(=O)N[C@@H](CCC(N)=O)C(=O)N[C@H](C(=O)N[C@@H](CC(C)C)C(=O)N[C@@H](CC(C)C)C(=O)N[C@@H](CCC(=O)O)C(=O)N[C@@H](CCC(N)=O)C(=O)N[C@@H](C)C(=O)N[C@@H](CCCCN)C(=O)N[C@@H](C)C(=O)N[C@@H](CCC(=O)O)C(=O)N[C@@H](C)C(=O)N[C@@H](C)C(=O)N[C@@H](CCCNC(=N)N)C(=O)N[C@@H](CCC(=O)O)C(=O)N[C@@H](CCC(N)=O)C(=O)N[C@@H](C)C(=O)N[C@H](C(=O)N[C@H](C(=O)N[C@@H](CC(N)=O)C(=O)N[C@@H](C)C(=O)N[C@@H](CCCNC(=N)N)C(=O)N[C@H](C(=O)N[C@@H](CC(C)C)C(=O)N[C@@H](C)C(=O)N[C@@H](CCCNC(=N)N)C(=O)N[C@H](C(N)=O)C(C)C)[C@@H](C)CC)[C@@H](C)O)[C@@H](C)O)[C@@H](C)CC)[C@@H](C)CC)C(C)C)C(C)C` [compound 112] (H-IVLSLDVPIGLLQILLEQAKAEAAREQATTNARILARV-NH2; N-terminus assumed), at CRF1R, the concentration for a half-maximal effect (EC50) is over 100 nM and the Emax came out at 10%. On CRF2R, the EC50 is 12.3 nM and the Emax came to 100%.

For the origin of these results see patent US6936585B2, “Corticotropin releasing factor 2 receptor agonists” (priority 2002, dated 2005).
